Laboratory results published in ChEMBL document CHEMBL5724696, “Autophagy assay results for EUbOPEN Chemogenomics Library” (2024).

Columns and labels:
Type in all cases: functional, Homo sapiens
TERT-RPE1 = assay: (§1) Here: values are normalized to the negative (DMSO; defined as 0% autophagy induction) and positive (250nM Torin1; mTOR inhibitor; defined as maximal inducer of autophagy = 100%) control compounds and represented as % of autophagy induction. […] The impact of autophagy induction on cells is complex and depends on the affected target. As such, the magnitude of a phenotype may not be equally mirrored in the %-value of autophagy induction and vice versa. The dynamics of the induction may indicate the mode of activation: e.g. activation via phosphorylation or a signaling cascade may occur fast, while activation via transcription factors may take considerably longer. […] Of note, treatment concentrations may be sub-optimal for specific compounds, leading to false negative annotations.; settings: Culturing Media DMEM/F12 (1:1), 1 % Penicillin/Streptomycin, 10% Fetal bovin serum Add-On: No, Screening Media Control DMEM/F12 (1:1), Screening Media Samples DMEM/F12 (1:1)
U2OS [1] = assay: as §1; settings: Culturing Media DMEM, 1 % Penicillin/Streptomycin, 10% Fetal bovin serum Add-On: No, Screening Media Control DMEM, Screening Media Samples DMEM
U2OS [2] = assay: as §1; settings: Culturing Media DMEM, 1 % Penicillin/Streptomycin, 10% Fetal bovin serum Add-On: No, Screening Media Control DMEM, Screening Media Samples DMEM; remark: listed apart in the source
[3] = Compound Concentration 0.5 uM, Timepoint 12 hours
[4] = Compound Concentration 0.5 uM, Timepoint 24 hours
[5] = Compound Concentration 0.5 uM, Timepoint 36 hours
[6] = Compound Concentration 0.5 uM, Timepoint 60 hours
[7] = Compound Concentration 2 uM, Timepoint 12 hours
[8] = Compound Concentration 2 uM, Timepoint 24 hours
[9] = Compound Concentration 2 uM, Timepoint 36 hours
[10] = Compound Concentration 2 uM, Timepoint 60 hours
[11] = Compound Concentration 10 uM, Timepoint 12 hours
[12] = Compound Concentration 10 uM, Timepoint 24 hours
[13] = Compound Concentration 10 uM, Timepoint 36 hours
[14] = Compound Concentration 10 uM, Timepoint 60 hours

SMILES	autophagy induction (TERT-RPE1; [3]) [%]	autophagy induction (TERT-RPE1; [4]) [%]	autophagy induction (TERT-RPE1; [5]) [%]	autophagy induction (TERT-RPE1; [6]) [%]	autophagy induction (TERT-RPE1; [7]) [%]	autophagy induction (TERT-RPE1; [8]) [%]	autophagy induction (TERT-RPE1; [9]) [%]	autophagy induction (TERT-RPE1; [10]) [%]	autophagy induction (TERT-RPE1; [11]) [%]	autophagy induction (TERT-RPE1; [12]) [%]	autophagy induction (TERT-RPE1; [13]) [%]	autophagy induction (TERT-RPE1; [14]) [%]	autophagy induction (U2OS [1]; [3]) [%]	autophagy induction (U2OS [1]; [4]) [%]	autophagy induction (U2OS [1]; [5]) [%]	autophagy induction (U2OS [1]; [6]) [%]	autophagy induction (U2OS [1]; [7]) [%]	autophagy induction (U2OS [1]; [8]) [%]	autophagy induction (U2OS [1]; [9]) [%]	autophagy induction (U2OS [1]; [10]) [%]	other results
CC(C)NCC(O)c1ccc(N)c(C#N)c1 (stereo not drawn) [CIMATEROL]	2.2717	-0.618	-7.669	-22.0747	9.171	5.1156	0.3735	-11.1579	13.5821	11.7661	4.317	-0.2093	-8.937	-2.541	-0.28	0.09617	-0.2215	-0.03889	0.3661	0.1358	autophagy induction (U2OS [1]; [11]): 14.0499%; autophagy induction (U2OS [1]; [12]): 5.045%; autophagy induction (U2OS [1]; [13]): 2.283%; autophagy induction (U2OS [1]; [14]): 0.5754%; autophagy induction (U2OS [2]; [3]): 3.679%; autophagy induction (U2OS [2]; [4]): -3.232%; autophagy induction (U2OS [2]; [5]): -4.651%; autophagy induction (U2OS [2]; [6]): -4.997%; autophagy induction (U2OS [2]; [7]): 6.803%; autophagy induction (U2OS [2]; [8]): -0.3028%; autophagy induction (U2OS [2]; [9]): -4.0163%; autophagy induction (U2OS [2]; [10]): -10.3459%; autophagy induction (U2OS [2]; [11]): 5.959%; autophagy induction (U2OS [2]; [12]): -4.01%; autophagy induction (U2OS [2]; [13]): -7.491%; autophagy induction (U2OS [2]; [14]): -4.33%
C[C@H](Cc1cc2c(c(C(N)=O)c1)N(CCCO)CC2)NCCOc1ccccc1OCC(F)(F)F [SILODOSIN]	-3.093	-6.268	-8.97	-13.239	-3.63	-5.97	-7.85	-11.8179	-0.1283	-0.9694	1.604	-1.313	-11.9601	-4.037	-2.198	-1.72	-7.096	-4.088	-2.301	-1.816	autophagy induction (U2OS [1]; [11]): 0.9061%; autophagy induction (U2OS [1]; [12]): 0.8821%; autophagy induction (U2OS [1]; [13]): -0.4631%; autophagy induction (U2OS [1]; [14]): -2.909%; autophagy induction (U2OS [2]; [3]): 8.749%; autophagy induction (U2OS [2]; [4]): -4.272%; autophagy induction (U2OS [2]; [5]): -5.327%; autophagy induction (U2OS [2]; [6]): -13.2389%; autophagy induction (U2OS [2]; [7]): -4.216%; autophagy induction (U2OS [2]; [8]): 0.5128%; autophagy induction (U2OS [2]; [9]): -1.271%; autophagy induction (U2OS [2]; [10]): -7.276%; autophagy induction (U2OS [2]; [11]): 1.6%; autophagy induction (U2OS [2]; [12]): 6.633%; autophagy induction (U2OS [2]; [13]): 3.208%; autophagy induction (U2OS [2]; [14]): 0.1621%
COc1ccnc(N2CCC3(CCCN(Cc4c[nH]c5ccccc45)C3=O)CC2)n1	-7.48	-12.7476	-12.8002	-18.0789	-3.2646	-8.655	-9.0208	-13.8382	-6.8833	-7.1204	-8.728	-9.531	6.725	2.47	0.2405	-0.1995	-9.208	-5.729	-5.289	-3.421	autophagy induction (U2OS [1]; [11]): 2.478%; autophagy induction (U2OS [1]; [12]): -1.409%; autophagy induction (U2OS [1]; [13]): -1.806%; autophagy induction (U2OS [1]; [14]): -1.259%; autophagy induction (U2OS [2]; [3]): -0.8639%; autophagy induction (U2OS [2]; [4]): 3.062%; autophagy induction (U2OS [2]; [5]): -2.159%; autophagy induction (U2OS [2]; [6]): 0.6428%; autophagy induction (U2OS [2]; [7]): 14.1219%; autophagy induction (U2OS [2]; [8]): 7.888%; autophagy induction (U2OS [2]; [9]): 7.881%; autophagy induction (U2OS [2]; [10]): 5.533%; autophagy induction (U2OS [2]; [11]): -0.07351%; autophagy induction (U2OS [2]; [12]): -0.8676%; autophagy induction (U2OS [2]; [13]): 0.7982%; autophagy induction (U2OS [2]; [14]): -3.188%
